In ChEMBL document CHEMBL1649467, “Impact of human serum albumin on oritavancin in vitro activity against enterococci” (Antimicrob Agents Chemother, 2009):
Values after ≈ are worked out from the molar mass of the structure shown.

Legend:
Enterococcus faecalis [1] = test: Bactericidal activity against vancomycin-resistant Enterococcus faecalis ATCC 51299 expressing vanB gene assessed as change in bacterial count at 4 ug/ml by time-kill assay; type: functional
Enterococcus faecium [2] = test: Bactericidal activity against vancomycin-resistant Enterococcus faecium 1059060 expressing vanA gene assessed as change in bacterial count at 4 ug/ml by time-kill assay; type: functional
Enterococcus faecium [3] = test: Selectivity ratio of MIC for Enterococcus faecium ATCC 51559 in presence of 4% HSA to MIC for Enterococcus faecium ATCC 51559; type: functional
Enterococcus faecalis [4] = test: Antimicrobial activity against vancomycin-susceptible Enterococcus faecalis ATCC 29212 by broth dilution method in presence of 4% HSA; type: functional
Enterococcus faecium [5] = test: Selectivity ratio of MIC for Enterococcus faecium 1119175 in presence of 4% HSA to MIC for Enterococcus faecium 1119175; type: functional
Enterococcus faecalis [6] = test: Bactericidal activity against vancomycin-susceptible Enterococcus faecalis ATCC 29212 assessed as change in bacterial count at 64 ug/ml by time-kill assay; type: functional
Enterococcus faecalis [7] = test: Bactericidal activity against vancomycin-resistant Enterococcus faecalis ATCC 51299 expressing vanB gene assessed as change in bacterial count at 64 ug/ml by time-kill assay; type: functional
Enterococcus faecalis [8] = test: Selectivity ratio of MIC for Enterococcus faecalis 1058946 in presence of 4% HSA to MIC for Enterococcus faecalis 1058946; type: functional
Enterococcus faecium [9] = test: Bactericidal activity against vancomycin-resistant Enterococcus faecium 1059060 expressing vanA gene assessed as change in bacterial count at 64 ug/ml by time-kill assay; type: functional
[10] = Free fraction in healthy human male at 4 mg/kg, iv every 24 hrs by LC/MS/MS analysis; type: ADME, organism-based; design: dose 4 mg/kg, route intravenous; settings: in vivo
Enterococcus faecalis [11] = test: Antimicrobial activity against vancomycin-resistant Enterococcus faecalis 1058946 by broth dilution method in presence of 4% HSA; type: functional
Enterococcus faecium [12] = test: Antimicrobial activity against vancomycin-resistant Enterococcus faecium 1119175 by broth dilution method; type: functional
Enterococcus faecalis [13] = test: Bactericidal activity against vancomycin-susceptible Enterococcus faecalis ATCC 29212 assessed as change in bacterial count at 4 ug/ml by time-kill assay; type: functional
Enterococcus faecium [14] = test: Selectivity ratio of MIC for Enterococcus faecium 1059060 in presence of 4% HSA to MIC for Enterococcus faecium 1059060; type: functional
Enterococcus faecium [15] = test: Antimicrobial activity against vancomycin-resistant Enterococcus faecium 1059060 by broth dilution method; type: functional
Enterococcus faecium [16] = test: Antimicrobial activity against vancomycin-resistant Enterococcus faecium ATCC 51559 by broth dilution method; type: functional
Enterococcus faecalis [17] = test: Antimicrobial activity against vancomycin-resistant Enterococcus faecalis ATCC 51299 by broth dilution method; type: functional
Enterococcus faecalis [18] = test: Selectivity ratio of MIC for Enterococcus faecalis ATCC 29212 in presence of 4% HSA to MIC for Enterococcus faecalis ATCC 29212; type: functional
Enterococcus faecalis [19] = test: Antimicrobial activity against vancomycin-susceptible Enterococcus faecalis ATCC 29212 by broth dilution method; type: functional
Enterococcus faecalis [20] = test: Bactericidal activity against vancomycin-resistant Enterococcus faecalis 1058946 expressing vanA gene assessed as change in bacterial count at 64 ug/ml by time-kill assay; type: functional
Enterococcus faecium [21] = test: Antimicrobial activity against vancomycin-resistant Enterococcus faecium 1059060 by broth dilution method in presence of 4% HSA; type: functional
Enterococcus faecalis [22] = test: Antimicrobial activity against vancomycin-resistant Enterococcus faecalis ATCC 51299 by broth dilution method in presence of 4% HSA; type: functional
Enterococcus faecium [23] = test: Bactericidal activity against vancomycin-resistant Enterococcus faecium 1119175 expressing vanB gene assessed as change in bacterial count at 4 ug/ml by time-kill assay; type: functional
Enterococcus faecium [24] = test: Bactericidal activity against vancomycin-resistant Enterococcus faecium ATCC 51559 expressing vanA gene assessed as change in bacterial count at 64 ug/ml by time-kill assay; type: functional
[25] = Cmax in healthy human male at 4 mg/kg, iv every 24 hrs by LC/MS/MS analysis; type: ADME, organism-based; design: dose 4 mg/kg, route intravenous; settings: in vivo
Enterococcus faecium [26] = test: Bactericidal activity against vancomycin-resistant Enterococcus faecium 1119175 expressing vanB gene assessed as change in bacterial count at 64 ug/ml by time-kill assay; type: functional
Enterococcus faecium [27] = test: Antimicrobial activity against vancomycin-resistant Enterococcus faecium ATCC 51559 by broth dilution method in presence of 4% HAS; type: functional
Enterococcus faecium [28] = test: Bactericidal activity against vancomycin-resistant Enterococcus faecium ATCC 51559 expressing vanA gene assessed as change in bacterial count at 4 ug/ml by time-kill assay; type: functional
Enterococcus faecium [29] = test: Antimicrobial activity against vancomycin-resistant Enterococcus faecium 1119175 by broth dilution method in presence of 4% HSA; type: functional
Enterococcus faecalis [30] = test: Antimicrobial activity against vancomycin-resistant Enterococcus faecalis 1058946 by broth dilution method; type: functional
Enterococcus faecalis [31] = test: Bactericidal activity against vancomycin-resistant Enterococcus faecalis 1058946 expressing vanA gene assessed as change in bacterial count at 4 ug/ml by time-kill assay; type: functional
Enterococcus faecalis [32] = test: Selectivity ratio of MIC for Enterococcus faecalis ATCC 51299 in presence of 4% HSA to MIC for Enterococcus faecalis 51299; type: functional
Enterococcus faecium [33] = test: Bactericidal activity against vancomycin-resistant Enterococcus faecium 1059060 expressing vanA gene assessed as change in bacterial count at 16 ug/ml by time-kill assay; type: functional
Enterococcus faecalis [34] = test: Bactericidal activity against vancomycin-susceptible Enterococcus faecalis ATCC 29212 assessed as change in bacterial count at 16 ug/ml by time-kill assay; type: functional
Enterococcus faecium [35] = test: Bactericidal activity against vancomycin-resistant Enterococcus faecium 1119175 expressing vanB gene assessed as change in bacterial count at 16 ug/ml by time-kill assay; type: functional
[36] = Cmax in healthy human male at 600 mg, po every 12 hrs by LC/MS/MS analysis; type: ADME, organism-based; design: dose 600 mg, route oral; settings: in vivo
Enterococcus faecalis [37] = test: Bactericidal activity against vancomycin-resistant Enterococcus faecalis 1058946 expressing vanA gene assessed as change in bacterial count at 16 ug/ml by time-kill assay; type: functional
Enterococcus faecium [38] = test: Bactericidal activity against vancomycin-resistant Enterococcus faecium ATCC 51559 expressing vanA gene assessed as change in bacterial count at 16 ug/ml by time-kill assay; type: functional
Enterococcus faecalis [39] = test: Bactericidal activity against vancomycin-resistant Enterococcus faecalis ATCC 51299 expressing vanB gene assessed as change in bacterial count at 16 ug/ml by time-kill assay; type: functional

CCCCCCCCCC(=O)N[C@@H](Cc1c[nH]c2ccccc12)C(=O)N[C@H](CC(N)=O)C(=O)N[C@@H](CC(=O)O)C(=O)N[C@@H]1C(=O)NCC(=O)N[C@@H](CCCN)C(=O)N[C@@H](CC(=O)O)C(=O)N[C@H](C)C(=O)N[C@@H](CC(=O)O)C(=O)NCC(=O)N[C@H](CO)C(=O)N[C@@H]([C@H](C)CC(=O)O)C(=O)N[C@@H](CC(=O)c2ccccc2N)C(=O)O[C@@H]1C
log10CFU/ml (Enterococcus faecalis [1]): 2.3
log10CFU/ml (Enterococcus faecium [2]): -0.54
Ratio (Enterococcus faecium [3]): 16
MIC (Enterococcus faecalis [4]): 32 µg/mL
Ratio (Enterococcus faecium [5]): 16
log10CFU/ml (Enterococcus faecalis [6]): 0.26
log10CFU/ml (Enterococcus faecalis [7]): 1.4
Ratio (Enterococcus faecalis [8]): 8
log10CFU/ml (Enterococcus faecium [9]): -0.78
fraction unbound at 24 h [10]: 0.08
MIC (Enterococcus faecalis [11]): 16 µg/mL
MIC (Enterococcus faecium [12]): 4 µg/mL (≈ 2.47 µM)
log10CFU/ml (Enterococcus faecalis [13]): 1.9
Ratio (Enterococcus faecium [14]): 8
MIC (Enterococcus faecium [15]): 1 µg/mL (≈ 0.617 µM)
MIC (Enterococcus faecium [16]): 2 µg/mL (≈ 1.23 µM)
MIC (Enterococcus faecalis [17]): 2 µg/mL (≈ 1.23 µM)
Ratio (Enterococcus faecalis [18]): 16
MIC (Enterococcus faecalis [19]): 2 µg/mL (≈ 1.23 µM)
log10CFU/ml (Enterococcus faecalis [20]): -0.4
MIC (Enterococcus faecium [21]): 8 µg/mL
MIC (Enterococcus faecalis [22]): 32 µg/mL
log10CFU/ml (Enterococcus faecium [23]): 2.3
log10CFU/ml (Enterococcus faecium [24]): 1.4
Cmax [25]: 64000 ng/mL
log10CFU/ml (Enterococcus faecium [26]): 1.5
MIC (Enterococcus faecium [27]): 32 µg/mL
log10CFU/ml (Enterococcus faecium [28]): 2.4
MIC (Enterococcus faecium [29]): 64 µg/mL
MIC (Enterococcus faecalis [30]): 2 µg/mL (≈ 1.23 µM)
log10CFU/ml (Enterococcus faecalis [31]): 2.5
Ratio (Enterococcus faecalis [32]): 16

CC(=O)NC[C@H]1CN(c2ccc(N3CCOCC3)c(F)c2)C(=O)O1 [LINEZOLID]
log10CFU/ml (Enterococcus faecalis [1]): -0.5
log10CFU/ml (Enterococcus faecium [2]): -0.35
log10CFU/ml (Enterococcus faecium [33]): -0.42
log10CFU/ml (Enterococcus faecalis [34]): 0.11
log10CFU/ml (Enterococcus faecium [35]): -0.72
MIC (Enterococcus faecium [12]): 2 µg/mL (≈ 5.93 µM)
log10CFU/ml (Enterococcus faecalis [13]): 0.13
Cmax [36]: 16000 ng/mL
MIC (Enterococcus faecium [15]): 1 µg/mL (≈ 2.96 µM)
MIC (Enterococcus faecium [16]): 1 µg/mL (≈ 2.96 µM)
log10CFU/ml (Enterococcus faecalis [37]): 0.08
MIC (Enterococcus faecium [21]): 1 µg/mL
log10CFU/ml (Enterococcus faecium [23]): 0.2
MIC (Enterococcus faecium [27]): 2 µg/mL
log10CFU/ml (Enterococcus faecium [38]): -2
log10CFU/ml (Enterococcus faecium [28]): -0.63
MIC (Enterococcus faecium [29]): 2 µg/mL
log10CFU/ml (Enterococcus faecalis [31]): 0.78
log10CFU/ml (Enterococcus faecalis [39]): -0.35
